Data from patent US20100298141A1, “SUBSTITUTED PYRIDINE N-OXIDE HERBICIDES” (E. I. DU PONT DE NEMOURS AND COMPANY, priority 2007, published 2010).

Key:
Test in all cases: Test H preemergence mixtures of compound 2 with crop safeners
Details in all cases: Test H, alone
giant foxtail (SETFA) = type: in vivo, Setaria faberi; set-up: key to SETFA Obsd. (observed effect): observed % effect, visually evaluated vs controls
Source text: (§1) Seeds of test plants consisting of winter wheat (TRZAW, Triticum aestivum), corn (ZEAMD, Zea mays cv. ‘Pioneer 33G26’), giant foxtail (SETFA, Setaria faberi), and Italian ryegrass (LOLMU, Lolium multiflorum) were planted into a blend of loam soil and sand and treated preemergence with a directed soil spray using test chemicals formulated in a non-phytotoxic solvent mixture that included a surfactant. Seeds of small-seeded species were planted about 1 cm deep; larger seeds were planted about 2.5 cm deep. […] Balanced fertilizer was applied through the watering system. Treatments consisted of Compound 2 and the above mentioned safeners alone and in combination using a spray volume of 457 L/ha. Each treatment was replicated four times. Treated plants and controls were maintained in a greenhouse for 14 to 21 days, after which time all species were compared to controls and visually evaluated. […] A dash (-) response means no test result. Colby's Equation was used to determine the herbicidal effects expected from the mixtures. Colby's Equation (Colby, S. […] wherein • Pa+b is the percentage effect of the mixture expected from additive contribution of the individual components, • Pa is the observed percentage effect of the first active ingredient at the same use rate as in the mixture, and • Pb is the observed percentage effect of the second active ingredient at the same use rate as in the mixture.

corn (ZEAMD) = type: in vivo, Zea mays cv. ‘Pioneer 33G26’; set-up: key to ZEAMD Obsd. (observed effect): observed % effect, visually evaluated vs controls
Source text: as §1

Italian ryegrass (LOLMU) = type: in vivo, Lolium multiflorum; set-up: key to LOLMU Obsd. (observed effect): observed % effect, visually evaluated vs controls
Source text: as §1

winter wheat (TRZAW) = type: in vivo, Triticum aestivum; set-up: key to TRZAW Obsd. (observed effect): observed % effect, visually evaluated vs controls
Source text: as §1

SMILES: CCOC(=O)C1=NN(c2ccc(Cl)cc2Cl)C(C)(C(=O)OCC)C1 (stereo not drawn) [mefenpyr-diethyl]
- SETFA Obsd. (observed effect) (giant foxtail (SETFA); 8 g a.i./ha): 0
- SETFA Obsd. (observed effect) (giant foxtail (SETFA); 16 g a.i./ha): 0
- SETFA Obsd. (observed effect) (giant foxtail (SETFA); 31 g a.i./ha): 1
- ZEAMD Obsd. (observed effect) (corn (ZEAMD); 8 g a.i./ha): 0
- ZEAMD Obsd. (observed effect) (corn (ZEAMD); 16 g a.i./ha): 0
- ZEAMD Obsd. (observed effect) (corn (ZEAMD); 31 g a.i./ha): 0
- LOLMU Obsd. (observed effect) (Italian ryegrass (LOLMU); 8 g a.i./ha): 3
- LOLMU Obsd. (observed effect) (Italian ryegrass (LOLMU); 16 g a.i./ha): 0
- LOLMU Obsd. (observed effect) (Italian ryegrass (LOLMU); 31 g a.i./ha): 0
- TRZAW Obsd. (observed effect) (winter wheat (TRZAW); 8 g a.i./ha): 0
- TRZAW Obsd. (observed effect) (winter wheat (TRZAW); 16 g a.i./ha): 0
- TRZAW Obsd. (observed effect) (winter wheat (TRZAW); 31 g a.i./ha): 0

SMILES: O=C1OC(=O)c2cccc3cccc1c23 [naphthalic anhydride, 1,8-naphthalic anhydride]
- SETFA Obsd. (observed effect) (giant foxtail (SETFA); 8 g a.i./ha): 0
- SETFA Obsd. (observed effect) (giant foxtail (SETFA); 16 g a.i./ha): 0
- SETFA Obsd. (observed effect) (giant foxtail (SETFA); 31 g a.i./ha): 0
- ZEAMD Obsd. (observed effect) (corn (ZEAMD); 8 g a.i./ha): 0
- ZEAMD Obsd. (observed effect) (corn (ZEAMD); 16 g a.i./ha): 0
- ZEAMD Obsd. (observed effect) (corn (ZEAMD); 31 g a.i./ha): 0
- LOLMU Obsd. (observed effect) (Italian ryegrass (LOLMU); 8 g a.i./ha): 13
- LOLMU Obsd. (observed effect) (Italian ryegrass (LOLMU); 16 g a.i./ha): 0
- LOLMU Obsd. (observed effect) (Italian ryegrass (LOLMU); 31 g a.i./ha): 0
- TRZAW Obsd. (observed effect) (winter wheat (TRZAW); 8 g a.i./ha): 3
- TRZAW Obsd. (observed effect) (winter wheat (TRZAW); 16 g a.i./ha): 0
- TRZAW Obsd. (observed effect) (winter wheat (TRZAW); 31 g a.i./ha): 0
